Source: PMC6684646, “Lysosomal integral membrane protein-2 (LIMP-2/SCARB2) is involved in lysosomal cholesterol export” (Nature Communications, 2019)

Assays:
[1] = target: T1, LIMP-2 ectodomain (His6.hLIMP-2(aa35-430)) (Homo sapiens, UniProt Q14108); experiment: UV crosslinking and click rhodamine, SDS-PAGE; format: binding; settings: covalent; labelled compound; 50 µM probe, 12 h at 4 °C, UV 15 min
T1 construct: gene SCARB2; luminal domain aa 35-430, N-terminal His6 tag (cloned after a protein A tag)
T1 sequence (Q14108 35-430): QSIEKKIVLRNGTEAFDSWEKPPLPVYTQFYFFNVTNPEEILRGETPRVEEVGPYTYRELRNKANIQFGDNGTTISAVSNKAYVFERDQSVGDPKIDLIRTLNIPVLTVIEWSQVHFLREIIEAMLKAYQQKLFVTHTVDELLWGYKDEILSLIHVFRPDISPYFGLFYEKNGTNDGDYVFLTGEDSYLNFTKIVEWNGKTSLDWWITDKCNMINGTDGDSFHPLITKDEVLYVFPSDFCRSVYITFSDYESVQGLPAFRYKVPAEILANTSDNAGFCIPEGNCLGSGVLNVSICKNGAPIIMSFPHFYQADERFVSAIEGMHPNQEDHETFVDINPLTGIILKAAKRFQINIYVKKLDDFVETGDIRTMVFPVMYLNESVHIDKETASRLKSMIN

[2] = target: T1, LIMP-2 ectodomain (His6.hLIMP-2(aa35-430)); experiment: microscale thermophoresis; format: binding; settings: 25 nM protein labelled with Red-tris-NTA; 300 mM NaAc pH 6.0, 150 mM NaCl, 0.05% Tween 20, 0.1% Fos-Choline 13; room temperature; read-out: EC50
Source text: microscale thermophoresis on LIMP-2 ectodomain (His6.hLIMP-2(aa35-430)) | direct interaction between purified, soluble His-tagged LIMP-2 protein labeled with Red-tris-NTA dye and cholesterol

Structure (SMILES) | UV crosslinking and click rhodamine, SDS-PAGE [1] | Kd [2] [nM]
C#CCCCC1(CCCCCCCCC(=O)N[C@@H](CO)[C@H](O)/C=C/CCCCCCCCCCCCC)N=N1 [pacFA ceramide] | fatty acids, ceramide and sphingosine bound with lower affinity | 
CC(C)CCC[C@@H](C)[C@H]1CC[C@H]2[C@@H]3CC=C4C[C@@H](O)CC[C@]4(C)[C@H]3CC[C@]12C [cholesterol] |  | 112 ± 32
C#CCCCC1(CCCCCCCCC(=O)O)N=N1 [pacFA] | fatty acids, ceramide and sphingosine bound with lower affinity | 
C#CCCCC1(CCCCCCCC/C=C/[C@@H](O)[C@@H](N)CO)N=N1 [photoclick sphingosine] | fatty acids, ceramide and sphingosine bound with lower affinity | 
